Results on 14 compounds are retold here after patent US20150352100A1, “USE OF SELECTIVE DELTA-OPIOID RECEPTOR ANTAGONISTS AND SPECIFIC SENSORY RECEPTOR LIGANDS” (priority 2013, published 2015).

Entries after “also recorded” stand apart in the source; their conditions may differ.

Assay [1] concerns primary human cultured fibroblasts. The assay can be described thus: In-vitro wound scratch model, wound closure/migration. It counts as cell-based. The conditions noted are these: for scratch wound closure after 24 h, remaining gap: FIG. 16b, all opioid antagonists 100 nM, compared to control without any antagonist; for wound closure/migration, gap closure after 24 h: FIG. 16a, compared to control cells in DMSO diluent. The procedure:
All opioid antagonists were used in a concentration of 100 nM.
The stimulation of wound closure in fibroblasts by TGF-beta1 is not surprising. However, the stimulation by the DOR-Antagonist Naltrindole was not expected. In an additional experiment we tested the effect of various specific opioid receptor antagonists on the wound closure/migration of human primary fibroblasts using the in-vitro wound scratch assay.

In assay [2] the test system is TAS2R14. The assay can be described thus: Calcium imaging (Fluo4-AM) of keratinocytes with TAS2R14 ligands. It counts as cell-based, human. The conditions noted are these: for effect of blocker on calcium response to thujone: keratinocytes; for calcium response: in the presence of 100 μM suramin, 1 mM thujone, FFA in N/TERT cells, n=4; for effect of blocker on calcium responses to thujone and FFA: human skin cells, suramin 100 μM. The procedure:
(§1) Maximal increases in fluorescence were generated in each recording by addition of the ionophore ionomycin at 1 μM, and calcium responses were calculated as percentages compared to maximal ionomycin signal.

Assay [3] deals with T1, TAS2R14 (Homo sapiens, UniProt Q9NYV8).
T1 construct: This has allowed functional studies of TAS2R14 to be carried out in a native setting; endogenous in cells; host or cells: human primary keratinocytes and N/TERT immortalised human keratinocytes
T1 sequence (Q9NYV8 1-317): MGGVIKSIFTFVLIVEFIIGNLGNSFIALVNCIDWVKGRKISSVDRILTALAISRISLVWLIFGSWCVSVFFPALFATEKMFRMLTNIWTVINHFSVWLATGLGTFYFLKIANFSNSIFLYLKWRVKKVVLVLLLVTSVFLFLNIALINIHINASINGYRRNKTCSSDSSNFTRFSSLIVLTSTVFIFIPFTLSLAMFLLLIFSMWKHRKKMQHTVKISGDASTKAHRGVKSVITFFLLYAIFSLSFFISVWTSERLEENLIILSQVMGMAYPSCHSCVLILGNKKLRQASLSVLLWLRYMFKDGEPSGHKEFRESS
Described as above. It counts as cell-based. Conditions: for intracellular free calcium (fluorescence of fluo4): bath-application of 1 mM, primary keratinocytes and N/TERT cells. The procedure: as §1

Assay [4] relates to 6 mm punch wounds on the back of mice. Kind of assay: In vivo wound healing, 6 mm punch wounds, topical cream. The conditions noted are these: 1% w/w cream on wounds twice every day; for wound healing (mean healing rate, macroscopic and microscopic): 10 mice per group, vs placebo. On the procedure:
The effects of selective DOR antagonist are tested in animal models of wound healing, preferably in mice, to determine whether a selective DOR antagonist improves the quality, rate or extent of wound healing.
In the present example, male mice of 3-4 months old were grouped into 5 groups and 10 in each group. Before experiment, mice are shaved one day before. Pentothal was used for anesthesia before experiments. Seven days experiments are used. Four wounds are made by cutting 6 mm diameter and 3 cm apart. Day 1 wound #1 for 7 day wound, Day 3 wound #2 for 5 day wound, Day 5 wound #3 for 3 day wound, Day 7 wound #4 for 1 day wound, Day 8 mice are sacrifice. […] At the end of experiments on Day 8, the biopsies will be taken from the mice and fixed in 4% formaldehyde and embedded in paraffin block.

The subject of another assay is DOR-mRNA expression. Kind of assay: Semiquantification of DOR mRNA by real time PCR in cultured human primary skin cells. It counts as cell-based. From the text:
A: Semiquantification of DOR mRNA by Real Time PCR
It is important to mention, that human cultured melanocytes and keratinocytes express more MOR than DOR mRNA. However, fibroblasts express more DOR than MOR mRNA.
A general note: In qPCR the cycle at which signal appears reflects the starting amount.

The next assay deals with DOR protein expression. Kind of assay: Western blot analysis of DOR protein expression in cultured human skin cells. The class given is cell-based. From the text:
B: Protein Expression of DOR by Western Blot Analysis: […]
(In western blotting, separated proteins are transferred to a membrane and probed.)

Assay [5] relates to Erk phosphorylation (ERK1/2). The assay can be described thus: pERK activation protocol (western blot, anti-phospho ERK1/2) in primary keratinocytes. It counts as cell-based, human. On the procedure:
Primary keratinocytes were grown to 70% and replaced with supplement free medium 16-24 hours before the experiments. The strongly stimulating supplement (25 mg/l bovine pituitary extract and 2.5 ug/l epidermal growth factor, EGF) in complete KFSM (Gibco) medium was used as positive control. Cells were exposed to SNC 80 for 15 min, DMSO (blank control) 15 min, or FCS/complete K-SFM for 30 min at 37° C. […] Cells were lysed in 100 μl RIPA buffer and cell lysates frozen in liquid nitrogen.
Equal amount of protein were separated by electrophoresis over 10% polyacrylamid gels followed by protein transfer onto nitrocellulose membrane. Blots were transferred to primary antibody solution (anti-phospho ERK1/2 in 5% BSA/TBS-T) and incubated at 4° C. over night. After appropriate washing in TBS-T blots were incubated in secondary antibody (anti-rabbit Alexa-680 in 5% milk/TBS-T) for 45 min at room temperature in dark. Blots were washed 3× in TBS-T protected from light. Blots were imaged with the IR imager in 700 nm channel in a scan at 169 μm resolution.

Setting [6] is: cultured human primary keratinocytes.
Setting [7] is: human cultured fibroblasts, 24 h exposure.
The mark [8] stands for this setting: human cultured melanocytes, 6 h exposure.
Setting [9] is: primary human cultured keratinocytes.

As for `COc1cccc2c1[C@]13CCN(CC4CC4)[C@H](C2)[C@]1(OC)CCC(=O)C3` [Cyprodime], the “scratch wound closure after 24 h, remaining gap” value in assay [1] is given as “no significant effects”.

Turning to `O=C1CN(/N=C/c2ccc(-c3ccc([N+](=O)[O-])cc3)o2)C(O)=N1` [Dantrolene], the “effect of blocker on calcium response to thujone” value in the assay on TAS2R14 [2] was “significantly attenuate”.

As for `O=C(O)c1ccccc1Nc1cccc(C(F)(F)F)c1` [FFA, flufenamic acid], the “intracellular free calcium (fluorescence of fluo4)” value at TAS2R14 [3] is “robust increases in intracellular free calcium”. Moreover, the calcium response in the assay with TAS2R14 [2] is 31.0±7.0 percentage of ionomycin signal.

On to `O=C1CC[C@@]2(O)[C@H]3Cc4ccc(O)c5c4[C@@]2(CCN3CC2CC2)[C@H]1O5` [Naltrexone], for which, in assay [4], the “wound healing (mean healing rate, macroscopic and microscopic)” value is reported as “not effective”.

On to `Oc1ccc2c3c1O[C@H]1c4oc5ccccc5c4C[C@@]4(O)[C@@H](C2)N(CC2CC2)CC[C@]314` [Naltriben], for which the “scratch wound closure after 24 h, remaining gap” value in assay [1] was “more effective than the mixed DOR1/2 antagonist Naltrindole and much more effective than the DOR1 antagonist BNTX”.

In the case of `Oc1ccc2c3c1O[C@H]1c4[nH]c5ccccc5c4C[C@@]4(O)[C@@H](C2)N(CC2CC2)CC[C@]314` [Naltrindole, naltrindole], the “wound healing (mean healing rate, macroscopic and microscopic)” value was “significantly improved wound healing at days 5 and 7” in assay [4]; “significant better healing” in assay [4] (listed as Naltrindol). Moreover, the “improvement of wound healing” value in assay [4] (compared to placebo) is recorded as 3 days. Further, the DOR-mRNA expression entry is recorded as “increases significantly” in the assay with DOR-mRNA expression (cultured human primary fibroblasts); “increases significantly” in the assay on DOR-mRNA expression (setting [6]); “increases significantly” in the assay with DOR-mRNA expression (cultured human primary melanocytes); “increases significantly” in the assay with DOR-mRNA expression (cultured human primary melanocytes, co-incubation of Naltrindole and agonist SNC-80). The “mRNA of DOR” value with DOR-mRNA expression (human keratinocytes and melanocytes pre-incubated for 3 hours with 10 μM Naltrindole, then exposed to SNC-80) is recorded as “massively up-regulated”. Besides, the DOR protein expression entry in the assay on DOR protein expression (setting [7]) is “important upregulation”; in the assay with DOR protein expression (setting [8]) it was “important up-regulation; also recorded: upregulates”; in the assay on DOR protein expression (human cultured melanocytes, combination of antagonist Naltrindole and agonist SNC-80), “can upregulate the protein as well; also recorded: can up-regulate the protein as well”; in the assay on DOR protein expression (setting [9]), “important up-regulation; also recorded: up-regulates”. In addition, in assay [5] (MAP kinase activation assay for selecting DOR antagonists), the “concentration that promotes phosphorylation of MAP kinase such as Erk” value is reported as “less than or equal to 10 μM”. Besides, in assay [5] (primary human keratinocytes), the “Erk phosphorylation (MAPK pathway ERK1/2)” value is listed as “strong stimulating effect; also recorded: massive activation of Erk”. Besides, the “wound closure/migration, gap closure after 24 h” value (“wound closure/migration” for short) in assay [1] was “significant faster migration and wound closure; also recorded: significant improvement of wound closure/migration”.

On to `C=CCN1C[C@H](C)N([C@H](c2ccc(C(=O)N(CC)CC)cc2)c2cccc(OC)c2)C[C@H]1C` [SNC-80], for which the “wound healing (mean healing rate, macroscopic and microscopic)” value in assay [4] was “very significant advantage of a specific DOR antagonist over”. In addition, the DOR-mRNA expression entry with DOR-mRNA expression (setting [6]) is “increases significantly”. The DOR protein expression entry is “some up- and downregulation” in the assay on DOR protein expression (setting [7]); “not” in the assay on DOR protein expression (setting [8]); “important up-regulation; also recorded: up-regulates” in the assay with DOR protein expression (setting [9]). Further, the “effect on Naltrindole-stimulated Erk phosphorylation” value in assay [5] (primary human keratinocytes) was “antagonized”. Also, the “wound closure/migration” value in assay [1] is listed as “does not seem to have any stimulation of migration; also recorded: does not seem to change migration”.

Take `C1CCC[C@H]2CCCN3CC[C@@H](CCCCCC[C@@H]4CCCN5CC[C@@H](CC1)O[C@@H]45)O[C@@H]23` [Xestospongin, Xestospongin C]: in the assay with TAS2R14 [2], the “effect of blocker on calcium response to thujone” value is given as “significantly attenuated; also recorded: highly significant inhibition”.

For `COC(=O)/C=C/C(=O)N[C@@H]1CC[C@@]2(O)[C@H]3Cc4ccc(O)c5c4[C@@]2(CCN3CC2CC2)[C@H]1O5` [irreversible blocker of MOR (>KOR>>DOR), beta-Funaltrexamine], the “scratch wound closure after 24 h, remaining gap” value in assay [1] is recorded as “no significant effects”.

For `Cc1ccc(C(=O)Nc2ccc(S(=O)(=O)O)c3cc(S(=O)(=O)O)cc(S(=O)(=O)O)c23)cc1NC(=O)c1cccc(NC(=O)Nc2cccc(C(=O)Nc3cc(C(=O)Nc4ccc(S(=O)(=O)O)c5cc(S(=O)(=O)O)cc(S(=O)(=O)O)c45)ccc3C)c2)c1` [suramin], the “effect of blocker on calcium responses to thujone and FFA” value with TAS2R14 [2] is listed as “significantly attenuated”; with TAS2R14 [2] (listed as Suramin) it was “attenuates significantly”.

As to `CC(C)[C@]12CC(=O)[C@H](C)[C@H]1C2` [thujone, α-thujone], the “intracellular free calcium (fluorescence of fluo4)” value on TAS2R14 [3] is recorded as “robust increases in intracellular free calcium”. The calcium response is 84.2±5.5 percentage of ionomycin signal at TAS2R14 [3] (control without suramin, 1 mM thujone, FFA in N/TERT cells, n=4) and 34.4±8.2 percentage of ionomycin signal with TAS2R14 [2].

As to Dalargin, in assay [4], the “wound healing (mean healing rate, macroscopic and microscopic)” value is on record as “very significant advantage of a specific DOR antagonist over”.

Consider Ryanodine, for which the “effect of blocker on calcium response to thujone” value with TAS2R14 [2] was “significantly attenuate”.

Regarding “TGFβ1: known stimulator of wound closure/migration”, the “wound closure/migration” value was “significant improvement of wound closure/migration” in assay [1]; “significant faster migration and wound closure” in assay [1] (listed as TGF-beta1).
